From patent US10975087B2, “Solid forms of tetrahydropyranyl amino-pyrrolopyrimidinone compounds” (ArQule, Inc., priority 2018, dated 2021)
Where “and” joins values, the source holds several entries; their conditions need not be identical. Identical values can stand only once. Entries after “also recorded” stand apart in the source; their conditions may differ.

Legend:
Format in all cases: physicochemical
[1] = Accelerated storage conditions (75% RH/40° C. for 72 hours), XRPD
[2] = Dynamic vapor sorption (DVS); settings: for Post-DVS XRPD analysis (form): after exposure to elevated humidity; for moisture uptake by DVS: at 90% RH
Procedure: Approximately 10-20 mg of sample was placed into a mesh vapor sorption balance pan and loaded into a DVS-1 dynamic vapor sorption balance by Surface Measurement Systems. […] After completion of the sorption cycle, the sample was dried using the same procedure to 0% RH and then a second sorption cycle back to 40% RH. Two cycles were performed. The weight change during the sorption/desorption cycles were plotted, allowing for the hygroscopic nature of the sample to be determined. XRPD analysis may be then carried out on any solid retained.

[3] = Variable temperature X-ray powder diffraction (VT-XRPD)
Procedure: VT-XRPD analysis was carried out on a Philips X'Pert Pro Multipurpose diffractometer. The samples were scanned between 4 and 35.99° 2θ using Cu K radiation (α1 λ=1.54060 Å; α2=1.54443 Å; β=1.39225 Å; α1:α2 ratio=0.5) running in Bragg-Brentano geometry (step size 0.008° 2θ) using 40 kV/40 mA generator settings. Measurements were performed at each step of the temperature profile: 30° C. initial scan, 150° C., 200° C., 210° C., 230° C., and 30° C., final scan.

[4] = Karl Fischer coulometric titration (KF) water content
Procedure: Approximately 10-30 mg of solid material was accurately weighed into a vial. The solid was then manually introduced into the titration cell of a Mettler Toledo C30 Compact Titrator. The vial was back-weighed after the addition of the solid and the weight of the added solid entered on the instrument. Titration was initiated once the sample had fully dissolved in the cell. The water content was calculated automatically by the instrument as a percentage and the data printed.

[5] = 7 day stability testing, open vials at 40° C./75% RH, ambient and 80° C.; settings: for XRPD analysis after storage for 1 week: 80° C., and ambient temperature; for Purity after 1 week (%) / area % purity and form changes after 1 week: open vials; for T = 0 purity (%): T = 0, before storage; for area % purity and form changes after 1 week: ambient, 40° C./75% RH and 80° C.
[6] = Thermodynamic solubility pH measurements; settings: for Solubility (mg/mL): Input Solvent pH 6.5, 25° C.; for XRPD after thermodynamic solubility studies: respective buffer
Procedure: After 2 hours at 25° C., the pH of each slurry was measured and the pH was adjusted, where required. After 24 hours at 25° C., the pH of each slurry was measured and the pH was adjusted, where required. After 48 hours at 25° C., the slurries were separated by centrifugation. The solids were analyzed by XRPD, while the pH of the separated liquors were also measured.

[7] = Salt disproportionation studies (slurry in deionized water); settings: for XRPD after salt disproportionation study, 48 hours / measured pH after slurrying in water: 48 hours
Procedure: Samples of salts described herein were prepared for disproportionation studies. Approximately 15 mg of the salt material was suspended in 4 mL of deionized water at ambient temperature (ca. 22° C.). The slurry of the salt was shaken at ambient temperature and analyzed after: 1 h, 24 h, and 48 h. Each sample was filtered using a centrifuge filter. The solid was analyzed by XRPD. pH measurements were performed for the solution (three pH measurements were carried out for each sample and the average pH was calculated).

[8] = Hydration studies in water/acetone mixtures; settings: for Hydration study result (solid by XRPD): 5 days; for solid obtained in hydration study: the other experiments (remaining water contents/temperatures)
Procedure: Hydration experiments were performed at 25° C. and 50° C. in water/acetone mixtures with the following water content (volume %): 2%, 5%, and 20%. The samples were prepared by adding 250 μL of the water/acetone mixture to 15 mg of the salt sample. The samples were stirred at 25° C. or at 50° C. After 2 days, the samples were inspected for the presence of solid. If solid was not observed, additional salt material was added to the dissolved samples. Samples were stirred for an additional 3 days. After 5 days, samples were filtered and the solid obtained was analyzed by XRPD.

[9] = Input Solvent Water, 25° C., 48 hours
[10] = Input Solvent pH 1, 25° C., 48 hours
[11] = Input Solvent pH 4.5, 25° C., 48 hours
[12] = 2% and 5% water in acetone, 25° C.
[13] = 2% water in water/acetone, 25° C., Form = form of the same salt
[14] = 2% water in water/acetone, 50° C., Form = form of the same salt
[15] = 5% water in water/acetone, 25° C., Form = form of the same salt
[16] = 5% water in water/acetone, 50° C., Form = form of the same salt
[17] = 20% water in water/acetone, 25° C.
[18] = 20% water in water/acetone, 50° C.

O=S(=O)(O)c1cccc2c(S(=O)(=O)O)cccc12
stability under accelerated storage conditions (XRPD) [1]: decreased crystallinity

O=C(c1ccc(Oc2ccccc2)cc1Cl)c1c[nH]c2ncnc(N[C@@H]3CC[C@@H](CO)OC3)c12 [Form 10, (2-chloro-4-phenoxyphenyl)(4-(((3R,6S)-6-(hydroxymethyl)tetrahydro-2H-pyran-3-yl)amino)-7H-pyrrolo[2,3-d]pyrimidin-5-yl)methanone]
hygroscopic nature by DVS [2]: slightly hygroscopic
Post-DVS XRPD analysis (form) [2]: no change in form, but reduction in crystallinity
moisture uptake by DVS [2]: 0.94%
VT-XRPD form upon heating to 150° C. ([3]; 150° C.): persisted upon heating to 150 °C with poor crystallinity
VT-XRPD form at 230° C. ([3]; 230° C.): became amorphous
Identity ([3]; VT-XRPD Run 1, Temp 30° C.): Form 10
Identity ([3]; VT-XRPD Run 2, Temp 150° C.): Form 10
Identity ([3]; VT-XRPD Run 3, Temp 200° C., two forms printed in two cells): Form 10; also recorded: Form 12
Identity ([3]; VT-XRPD Run 4, Temp 210° C.): Form 12
Identity ([3]; VT-XRPD Run 5, Temp 230° C.): Amorphous
Identity ([3]; VT-XRPD Run 6, Temp 30° C.): Amorphous
VT-XRPD form between ca. 200° C. and ca. 210° C. ([3]; ca. 200° C. to ca. 210° C.): converted to Form 12
VT-XRPD form upon cooling to 30° C. ([3]; cooling to 30° C.): remained amorphous
KF moisture (water) content [4]: 1.48%
KF water content in equivalents [4]: 0.4 equivalents

O=C(c1ccc(Oc2ccccc2)cc1Cl)c1c[nH]c2ncnc(N[C@@H]3CC[C@@H](CO)OC3)c12.O=S(=O)(O)c1ccccc1 [besylate Form 1]
Post-DVS XRPD analysis (form) [2]: no change in form from the input material
KF moisture (water) content [4]: 0.24% and 2.0%
XRPD analysis after storage for 1 week ([5]; 40° C./75% RH): no change in form from the input material
Purity after 1 week (%) ([5]; 40° C./75% RH): 97.8%
Purity after 1 week (%) ([5]; 80° C.): 97.4%
Purity after 1 week (%) ([5]; Ambient): 97.4%
T = 0 purity (%) [5]: 97.4%
area % purity and form changes after 1 week [5]: no decrease in area % purity or form changes
pH - 2 Hours at 25° C. ([6]; Input Solvent Water): 1.96
pH - 24 Hours at 25° C. ([6]; Input Solvent Water): 1.68
pH - 48 Hours at 25° C. ([6]; Input Solvent Water): 1.84
Solubility [6, 9]: 200 µg/mL
pH - 2 Hours at 25° C. ([6]; Input Solvent pH 1): 0.19
pH - 24 Hours at 25° C. ([6]; Input Solvent pH 1): 0.37
pH - 48 Hours at 25° C. ([6]; Input Solvent pH 1): 1.07
Solubility [6, 10]: 200 µg/mL
pH - 2 Hours at 25° C. ([6]; Input Solvent pH 4.5): 4.20
pH - 24 Hours at 25° C. ([6]; Input Solvent pH 4.5): 3.80
pH - 48 Hours at 25° C. ([6]; Input Solvent pH 4.5): 3.82
Solubility [6, 11]: <100 µg/mL
pH - 2 Hours at 25° C. ([6]; Input Solvent pH 6.5): 3.31
pH - 24 Hours at 25° C. ([6]; Input Solvent pH 6.5): 2.51
pH - 48 Hours at 25° C. ([6]; Input Solvent pH 6.5): 3.26
Solubility (mg/mL) ([6]; 48 hours): <LOD
XRPD after thermodynamic solubility studies ([6]; 25° C., 48 hours): poorly crystalline; also recorded: no change from the input material
stability under accelerated storage conditions (XRPD) [1]: stable
XRPD after salt disproportionation study, 24 hours [7]: gel-like, amorphous solid
XRPD after salt disproportionation study, 48 hours [7]: staying partially crystalline; also recorded: no change from the input material
solid obtained in hydration study (XRPD) [8, 12]: recovered
Hydration study result (solid by XRPD) [8, 13]: Form 1
Hydration study result (solid by XRPD) [8, 14]: Form 1
Hydration study result (solid by XRPD) [8, 15]: Gum
Hydration study result (solid by XRPD) [8, 16]: Gum
Hydration study result (solid by XRPD) [8, 17]: Gum
Hydration study result (solid by XRPD) [8, 18]: Gum
solid obtained in hydration study [8]: gum

O=C(c1ccc(Oc2ccccc2)cc1Cl)c1c[nH]c2ncnc(N[C@@H]3CC[C@@H](CO)OC3)c12.O=S(=O)(O)CCS(=O)(=O)O [edisylate Form 1]
Post-DVS XRPD analysis (form) [2]: no change in form from the input material
moisture uptake by DVS [2]: ca. 4.6%
KF moisture (water) content [4]: 0.94%
XRPD analysis after storage for 1 week ([5]; 40° C./75% RH): no change in form from the input material
Purity after 1 week (%) ([5]; 40° C./75% RH): 98.1%
Purity after 1 week (%) ([5]; 80° C.): 97.5%
Purity after 1 week (%) ([5]; Ambient): 97.9%
T = 0 purity (%) [5]: 97.9%
area % purity and form changes after 1 week [5]: no decrease in area % purity or form changes
XRPD after thermodynamic solubility studies ([6]; 25° C., 48 hours): no change from the input material
XRPD after salt disproportionation study, 48 hours [7]: no change from the input material
measured pH after slurrying in water [7]: 2.32

Br.O=C(c1ccc(Oc2ccccc2)cc1Cl)c1c[nH]c2ncnc(N[C@@H]3CC[C@@H](CO)OC3)c12 [hydrobromide Form 1]
Post-DVS XRPD analysis (form) [2]: no change in form from the input material
moisture uptake by DVS [2]: ca. 7.0%
KF moisture (water) content [4]: 7.39%
XRPD analysis after storage for 1 week ([5]; 40° C./75% RH): no change in form from the input material
XRPD after thermodynamic solubility studies ([6]; 25° C., 48 hours): no change from the input material
stability under accelerated storage conditions (XRPD) [1]: stable
XRPD after salt disproportionation study, 48 hours [7]: no change from the input material
solid obtained in hydration study (XRPD) [8, 12]: recovered
solid obtained in hydration study (XRPD) ([8]; 2% water in acetone, 50° C.): potentially new form
Hydration study result (solid by XRPD) [8, 13]: Form 1
Hydration study result (solid by XRPD) [8, 14]: low crystallinity
Hydration study result (solid by XRPD) [8, 15]: Form 1
Hydration study result (solid by XRPD) [8, 16]: Gum
Hydration study result (solid by XRPD) [8, 17]: Gum
Hydration study result (solid by XRPD) [8, 18]: Gum
solid obtained in hydration study [8]: gum

Br.O=C(c1ccc(Oc2ccccc2)cc1Cl)c1c[nH]c2ncnc(N[C@@H]3CC[C@@H](CO)OC3)c12 [hydrobromide Form 2]
Post-DVS XRPD analysis (form) [2]: no change in form from the input material
moisture uptake by DVS [2]: ca. 2.4%
KF moisture (water) content [4]: 1.97%
XRPD analysis after storage for 1 week ([5]; 40° C./75% RH): no change in form from the input material
pH - 2 Hours at 25° C. ([6]; Input Solvent Water): 1.86
pH - 24 Hours at 25° C. ([6]; Input Solvent Water): 1.34
pH - 48 Hours at 25° C. ([6]; Input Solvent Water): 1.86
Solubility [6, 9]: 500 µg/mL
pH - 2 Hours at 25° C. ([6]; Input Solvent pH 1): 0.27
pH - 24 Hours at 25° C. ([6]; Input Solvent pH 1): 0.40
pH - 48 Hours at 25° C. ([6]; Input Solvent pH 1): 0.78
Solubility [6, 10]: <100 µg/mL
pH - 2 Hours at 25° C. ([6]; Input Solvent pH 4.5): 3.97
pH - 24 Hours at 25° C. ([6]; Input Solvent pH 4.5): 3.62
pH - 48 Hours at 25° C. ([6]; Input Solvent pH 4.5): 3.84
Solubility [6, 11]: <100 µg/mL
pH - 2 Hours at 25° C. ([6]; Input Solvent pH 6.5): 3.53
pH - 24 Hours at 25° C. ([6]; Input Solvent pH 6.5): 2.61
pH - 48 Hours at 25° C. ([6]; Input Solvent pH 6.5): 3.44
Solubility (mg/mL) ([6]; 48 hours): <LOD
XRPD after thermodynamic solubility studies, pH 1 ([6]; pH 1, 25° C., 48 hours): hydrobromide Form 1 and 2 are observed
XRPD after thermodynamic solubility studies, water and pH 4.5 and 6.5 ([6]; water and pH 4.5 and 6.5, 25° C., 48 hours): poorly crystalline
XRPD after salt disproportionation study, 24 hours [7]: partially crystalline
XRPD after salt disproportionation study, 48 hours [7]: staying hydrobromide Form 2
measured pH after slurrying in water [7]: 1.86

Cl.O=C(c1ccc(Oc2ccccc2)cc1Cl)c1c[nH]c2ncnc(N[C@@H]3CC[C@@H](CO)OC3)c12 [hydrochloride Form 2]
stability under accelerated storage conditions (XRPD) [1]: decreased crystallinity

O=C(O)/C=C\C(=O)O.O=C(c1ccc(Oc2ccccc2)cc1Cl)c1c[nH]c2ncnc(N[C@@H]3CC[C@@H](CO)OC3)c12 [maleate Form 1]
stability under accelerated storage conditions (XRPD) [1]: stable

O=C(O)C(=O)O.O=C(c1ccc(Oc2ccccc2)cc1Cl)c1c[nH]c2ncnc(N[C@@H]3CC[C@@H](CO)OC3)c12 [oxalate Form 3]
stability under accelerated storage conditions (XRPD) [1]: stable
